Columns and labels:
[1] = target: T1, human RNR (histidine tagged human M1 and human M2 proteins) (Homo sapiens, UniProt P23921); test: Human RNR inhibition effect (dCDP formation from CDP); type: biochemical; details: 10 μM CDP, 37° C. for 30 minutes, read-out: RNR inhibitory activity IC50
T1 construct: made in house; host or cells: Escherichia coli
T1 sequence (P23921 1-792): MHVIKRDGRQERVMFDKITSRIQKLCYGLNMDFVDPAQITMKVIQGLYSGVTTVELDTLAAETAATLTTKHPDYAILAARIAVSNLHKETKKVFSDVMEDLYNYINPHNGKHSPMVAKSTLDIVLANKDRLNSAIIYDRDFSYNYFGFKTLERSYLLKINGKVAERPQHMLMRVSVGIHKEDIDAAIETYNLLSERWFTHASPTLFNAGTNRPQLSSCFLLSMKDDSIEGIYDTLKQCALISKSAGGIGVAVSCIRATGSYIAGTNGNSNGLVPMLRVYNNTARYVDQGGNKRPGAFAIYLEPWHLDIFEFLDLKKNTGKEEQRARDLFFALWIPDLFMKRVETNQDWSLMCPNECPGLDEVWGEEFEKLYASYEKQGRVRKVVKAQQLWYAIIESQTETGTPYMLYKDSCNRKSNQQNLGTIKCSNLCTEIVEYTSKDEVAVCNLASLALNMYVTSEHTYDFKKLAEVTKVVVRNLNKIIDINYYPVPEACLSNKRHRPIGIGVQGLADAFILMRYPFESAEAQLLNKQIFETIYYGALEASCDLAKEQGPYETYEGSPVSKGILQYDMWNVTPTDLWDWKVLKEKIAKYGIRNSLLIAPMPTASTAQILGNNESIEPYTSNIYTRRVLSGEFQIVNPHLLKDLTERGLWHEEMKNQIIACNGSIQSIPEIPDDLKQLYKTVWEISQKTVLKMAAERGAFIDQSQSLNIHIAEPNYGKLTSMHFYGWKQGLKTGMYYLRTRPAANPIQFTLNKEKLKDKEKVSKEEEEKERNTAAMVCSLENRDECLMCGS
In short: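 His-tagged human M1 (isoform 1) and N-terminal 59-aa-truncated M2 (isoform 2), E. coli-expressed, Ni-purified, preincubated 20 min with compound (1% DMSO). Reaction with 10 μM CDP, 2 mM ATP, 0.24 mM NADPH, 6 mM DTT, 4 mM Mg acetate, 100 mM KCl, 50 mM HEPES pH 7.2, 30 min at 37° C. dCDP formed quantified by reverse-phase HPLC after heat stop.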

[2] = system: CFPAC-1 (Human pancreatic cancer cell line); test: Effect of combination of sulfonamide compound and other antitumor agent (CellTiter-Glo, combination index): CFPAC-1;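 also: cells exposed to both agents together for 3 days, viability read by luminescence, normalized to vehicle-treated control wells, mean of triplicate wells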
Description: (§1) Each cell line was seeded at 90 L/well to a 96-well culture plate (Thermo Fisher Scientific, Inc.) according to the above tables. The cell-seeded plate was cultured in an incubator set to 37° C. and 500 CO2. On the day following seeding, varying concentrations of the sulfonamide compound and the other antitumor agent were added in combination to the cells. […] The serial dilutions of each compound, or DW was added at 5μL/well to the plate such that each compound and DW, or the sulfonamide compound and the other antitumor agent were combined. […] The plate after the addition was cultured at 37° C. for 3 days under 5% CO2 conditions.
(§2) Three days later, CellTiter-Glo(R) 2.0 Reagent (Promega Corporation) was added at 100 μL/well, and the amount of luminescence was measured using a plate reader EnSpire(R) Multimode Plate Reader (PerkinElmer Co., Ltd.).
(§3) An average value from 3 wells was calculated as to each drug condition from the obtained data, and cell survival rate normalized against control wells supplemented with the vehicle (DW) was calculated. A Fa (fractional inhibition) value was calculated by subtracting the cell survival rate from 1.

[3] = system: HCT116 (Human large intestine cancer cell line); test: Effect of combination of sulfonamide compound and other antitumor agent (CellTiter-Glo, combination index): HCT116; type: cell-based
Description: as §1, §2, §3

[4] = Example Compound 1 225 nM + Prexasertib 1.89 nM, molar ratio 1:0.008406
[5] = Example Compound 1 338 nM + AZD6738 925 nM, molar ratio 1:2.738
[6] = Example Compound 1 338 nM + Prexasertib 2.84 nM, molar ratio 1:0.008406
[7] = Example Compound 1 338 nM + SCH900776 253 nM, molar ratio 1:0.7487
[8] = Example Compound 1 507 nM + AZD6738 1390 nM, molar ratio 1:2.738
[9] = Example Compound 1 507 nM + Prexasertib 4.26 nM, molar ratio 1:0.008406
[10] = Example Compound 1 507 nM + SCH900776 380 nM, molar ratio 1:0.7487
[11] = Example Compound 1 760 nM + AZD6738 2080 nM, molar ratio 1:2.738
[12] = Example Compound 1 760 nM + Gemcitabine 5.28 nM, molar ratio 1:0.006950
[13] = Example Compound 1 760 nM + SCH900776 569 nM, molar ratio 1:0.7487
[14] = Example Compound 1 341 nM + Prexasertib 7.14 nM, molar ratio 1:0.02093
[15] = Example Compound 1 512 nM + Prexasertib 10.7 nM, molar ratio 1:0.02093
[16] = Example Compound 1 768 nM + AZD6738 508 nM, molar ratio 1:0.6621
[17] = Example Compound 1 768 nM + Prexasertib 16.1 nM, molar ratio 1:0.02093
[18] = Example Compound 1 1150 nM + AZD6738 761 nM, molar ratio 1:0.6621

- IC50 [1]: 0.06 µM
Structure (SMILES): Cc1ccc(F)c([C@@H](C)[C@H](NS(=O)(=O)c2ccc(Br)cc2C(N)=O)c2n[nH]c(=O)o2)c1C [Example 1, 5-bromo-2-(N-((1 S,2R)-2-(6-fluoro-2,3-dimethylphenyl)-1-(5-oxo-4,5-dihydro-1,3,4-oxadiazol-2-yl)propyl)sulfamoyl)benzamide]
- CI value [2, 4]: 0.825
- Fa value [2, 4]: 0.2319
- CI value [2, 5]: 0.484
- Fa value [2, 5]: 0.4791
- CI value [2, 6]: 0.580
- Fa value [2, 6]: 0.6056
- CI value [2, 7]: 0.496
- Fa value [2, 7]: 0.4162
- CI value [2, 8]: 0.356
- Fa value [2, 8]: 0.7266
- CI value [2, 9]: 0.633
- Fa value [2, 9]: 0.7542
- CI value [2, 10]: 0.369
- Fa value [2, 10]: 0.6944
- CI value [2, 11]: 0.427
- Fa value [2, 11]: 0.7884
- CI value [2, 12]: 0.790
- Fa value [2, 12]: 0.6416
- CI value [2, 13]: 0.472
- Fa value [2, 13]: 0.7479
- CI value [3, 14]: 0.451
- Fa value [3, 14]: 0.6993
- CI value [3, 15]: 0.243
- Fa value [3, 15]: 0.9038
- CI value [3, 16]: 0.264
- Fa value [3, 16]: 0.8782
- CI value [3, 17]: 0.197
- Fa value [3, 17]: 0.9579
- CI value [3, 18]: 0.218
- Fa value [3, 18]: 0.9579

Reference: patent US20200405697A1, “Antitumor Agent” (Taiho Pharmaceutical Co., Ltd, priority 2017, published 2020)
